Values quoted from earlier work, collected in patent US7056947B2, “Aza-peptide epoxides” (Georgia Tech Research Corp., priority 2002, dated 2006).

How the values were obtained:
α-chymotrypsin = α-chymotrypsin (Bos taurus, UniProt P00766); details: E-64; cited from earlier work
trypsin = biological target: T1, trypsin (Bos taurus, UniProt P00760); details: E-64; cited from earlier work
T1 construct: gene PRSS1

cruzain = cruzain (Trypanosoma cruzi, UniProt P25779); details: E-64; cited from earlier work
cruzain, sequence (P25779 123-467): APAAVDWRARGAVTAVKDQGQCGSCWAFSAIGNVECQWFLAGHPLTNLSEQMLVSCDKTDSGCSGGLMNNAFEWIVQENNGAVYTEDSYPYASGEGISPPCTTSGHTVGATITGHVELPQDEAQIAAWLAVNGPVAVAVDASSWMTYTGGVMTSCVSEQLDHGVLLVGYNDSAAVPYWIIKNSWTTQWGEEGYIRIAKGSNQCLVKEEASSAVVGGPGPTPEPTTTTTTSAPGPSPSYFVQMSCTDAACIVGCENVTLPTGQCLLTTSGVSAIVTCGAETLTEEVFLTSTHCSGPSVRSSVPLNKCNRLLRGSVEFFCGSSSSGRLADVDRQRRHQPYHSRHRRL

papaya proteinase IV = papaya proteinase IV (Carica papaya, UniProt P05994); details: E-64; cited from earlier work
streptococcal proteinase = streptococcal proteinase (Streptococcus pyogenes, UniProt P0C0J0); details: cited from earlier work
streptococcal proteinase, sequence (P0C0J0 146-398 limits assumed): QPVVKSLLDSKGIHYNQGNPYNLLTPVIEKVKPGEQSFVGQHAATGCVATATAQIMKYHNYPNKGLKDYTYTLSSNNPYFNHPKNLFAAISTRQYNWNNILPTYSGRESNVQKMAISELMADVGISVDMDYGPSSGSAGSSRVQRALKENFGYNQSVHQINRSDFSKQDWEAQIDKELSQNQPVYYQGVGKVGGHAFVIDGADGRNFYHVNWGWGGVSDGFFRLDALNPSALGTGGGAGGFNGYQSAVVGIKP

legumain = legumain (Homo sapiens, UniProt Q99538); details: E-64; cited from earlier work
legumain, sequence (Q99538 18-323, species assumed): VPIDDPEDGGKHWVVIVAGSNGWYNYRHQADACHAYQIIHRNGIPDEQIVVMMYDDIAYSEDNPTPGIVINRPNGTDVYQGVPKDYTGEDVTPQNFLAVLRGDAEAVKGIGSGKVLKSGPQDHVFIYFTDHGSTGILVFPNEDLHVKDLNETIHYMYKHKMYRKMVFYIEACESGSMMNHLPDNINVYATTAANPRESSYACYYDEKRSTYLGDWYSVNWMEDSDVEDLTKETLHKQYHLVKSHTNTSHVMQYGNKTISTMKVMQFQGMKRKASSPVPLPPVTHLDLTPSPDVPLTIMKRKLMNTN

caspase 1 (ICE) = caspase 1 (ICE) (Homo sapiens, UniProt P29466); details: E-64; cited from earlier work
cathepsin S = cathepsin S (Homo sapiens, UniProt P25774); details: E-64; cited from earlier work
cathepsin S, sequence (P25774 115-331, species assumed): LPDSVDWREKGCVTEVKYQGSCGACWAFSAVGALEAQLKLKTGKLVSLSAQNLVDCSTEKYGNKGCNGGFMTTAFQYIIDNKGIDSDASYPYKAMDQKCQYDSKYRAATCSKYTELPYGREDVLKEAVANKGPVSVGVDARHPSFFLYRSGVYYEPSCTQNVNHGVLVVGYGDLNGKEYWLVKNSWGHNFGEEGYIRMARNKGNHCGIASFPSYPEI

bleomycin hydrolase = bleomycin hydrolase (Homo sapiens, UniProt Q13867); details: E-64; cited from earlier work
bleomycin hydrolase, sequence (Q13867 whole entry, species assumed): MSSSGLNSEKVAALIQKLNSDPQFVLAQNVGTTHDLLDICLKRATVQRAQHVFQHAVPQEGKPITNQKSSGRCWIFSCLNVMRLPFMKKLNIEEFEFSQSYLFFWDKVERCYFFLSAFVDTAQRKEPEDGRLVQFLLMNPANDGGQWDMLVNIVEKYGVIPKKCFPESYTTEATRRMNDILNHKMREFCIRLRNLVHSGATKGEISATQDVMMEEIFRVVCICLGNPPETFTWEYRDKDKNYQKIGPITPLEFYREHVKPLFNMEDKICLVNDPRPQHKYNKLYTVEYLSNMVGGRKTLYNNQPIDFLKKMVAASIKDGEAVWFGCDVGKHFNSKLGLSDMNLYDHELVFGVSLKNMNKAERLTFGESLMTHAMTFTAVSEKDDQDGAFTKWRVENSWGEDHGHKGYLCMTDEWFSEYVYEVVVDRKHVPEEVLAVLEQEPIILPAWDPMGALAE

vignain = vignain (Vigna mungo, UniProt P12412); details: E-64; cited from earlier work
cathepsin L = cathepsin L (Homo sapiens, UniProt P07711); details: E-64; cited from earlier work
cathepsin L, sequence (P07711 114-333, species assumed): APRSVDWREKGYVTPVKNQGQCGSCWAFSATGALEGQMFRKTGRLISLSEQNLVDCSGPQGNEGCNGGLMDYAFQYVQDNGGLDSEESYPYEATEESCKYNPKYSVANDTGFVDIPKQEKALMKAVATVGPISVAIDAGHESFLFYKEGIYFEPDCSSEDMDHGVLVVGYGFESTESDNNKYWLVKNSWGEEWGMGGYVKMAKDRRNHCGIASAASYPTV

cathepsin H = cathepsin H (Homo sapiens, UniProt P09668); details: E-64; cited from earlier work
elastase = details: E-64; cited from earlier work
cathepsin B = cathepsin B (Homo sapiens, UniProt P07858); details: E-64; cited from earlier work
plasmin = plasmin (Homo sapiens, UniProt P00747); details: E-64; cited from earlier work
plasmin, sequence (P00747 97-810, species assumed): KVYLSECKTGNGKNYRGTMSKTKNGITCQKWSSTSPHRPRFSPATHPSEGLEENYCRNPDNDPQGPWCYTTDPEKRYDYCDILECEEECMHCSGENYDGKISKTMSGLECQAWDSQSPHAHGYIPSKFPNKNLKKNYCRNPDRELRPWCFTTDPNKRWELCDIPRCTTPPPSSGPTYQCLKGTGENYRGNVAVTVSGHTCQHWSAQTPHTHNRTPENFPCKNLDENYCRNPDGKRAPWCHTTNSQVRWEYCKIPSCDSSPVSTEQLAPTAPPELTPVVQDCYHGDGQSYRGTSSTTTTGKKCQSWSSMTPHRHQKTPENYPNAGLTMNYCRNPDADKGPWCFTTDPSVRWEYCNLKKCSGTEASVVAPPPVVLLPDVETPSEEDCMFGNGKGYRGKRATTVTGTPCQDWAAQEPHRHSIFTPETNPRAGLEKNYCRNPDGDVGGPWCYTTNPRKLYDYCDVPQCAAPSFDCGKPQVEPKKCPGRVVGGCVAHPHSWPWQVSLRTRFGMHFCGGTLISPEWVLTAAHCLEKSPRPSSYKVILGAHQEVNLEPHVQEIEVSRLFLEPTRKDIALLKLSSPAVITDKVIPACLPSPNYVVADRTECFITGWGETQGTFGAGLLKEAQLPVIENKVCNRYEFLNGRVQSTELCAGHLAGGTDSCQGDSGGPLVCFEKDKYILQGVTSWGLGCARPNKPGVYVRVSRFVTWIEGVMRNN

papain = biological target: T2, papain (Carica papaya, UniProt P00784); details: E-64; cited from earlier work
T2 sequence (P00784 134-345): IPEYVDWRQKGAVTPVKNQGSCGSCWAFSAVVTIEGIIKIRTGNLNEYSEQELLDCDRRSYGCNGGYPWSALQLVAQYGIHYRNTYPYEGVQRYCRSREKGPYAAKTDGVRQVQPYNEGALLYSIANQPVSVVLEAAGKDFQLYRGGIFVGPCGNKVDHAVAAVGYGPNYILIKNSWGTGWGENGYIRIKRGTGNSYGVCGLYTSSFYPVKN

collagenase = details: E-64; cited from earlier work
kallikrein = details: E-64; cited from earlier work
clostripain = clostripain (Hathewaya histolytica, UniProt P09870); details: E-64; cited from earlier work
cathepsin V = cathepsin V (Homo sapiens, UniProt O60911); details: E-64; cited from earlier work
cathepsin V, sequence (O60911 114-334, species assumed): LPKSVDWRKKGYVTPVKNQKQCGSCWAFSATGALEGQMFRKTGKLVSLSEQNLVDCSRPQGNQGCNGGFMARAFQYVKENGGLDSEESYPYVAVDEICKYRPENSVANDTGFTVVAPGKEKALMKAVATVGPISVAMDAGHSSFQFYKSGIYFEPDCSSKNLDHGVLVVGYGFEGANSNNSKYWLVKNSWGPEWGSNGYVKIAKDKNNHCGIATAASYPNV

cathepsin F = cathepsin F (Homo sapiens, UniProt Q9UBX1); details: E-64, rate not given; cited from earlier work
cathepsin F, sequence (Q9UBX1 271-484, species assumed): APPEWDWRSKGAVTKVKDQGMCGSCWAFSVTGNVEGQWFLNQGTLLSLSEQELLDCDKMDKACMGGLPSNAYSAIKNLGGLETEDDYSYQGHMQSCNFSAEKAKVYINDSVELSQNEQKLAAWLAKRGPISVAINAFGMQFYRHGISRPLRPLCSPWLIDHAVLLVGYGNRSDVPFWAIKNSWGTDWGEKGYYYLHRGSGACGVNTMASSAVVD

LDH = details: E-64; cited from earlier work
cathepsin J = details: E-64, rate not given; cited from earlier work
DPPI = DPPI (Homo sapiens, UniProt P53634); details: E-64; cited from earlier work
stem bromelain = stem bromelain (Ananas comosus, UniProt P14518); details: E-64; cited from earlier work
pepsin = pepsin (Homo sapiens, UniProt P0DJD8); details: E-64; cited from earlier work
pepsin, sequence (P0DJD8 63-388): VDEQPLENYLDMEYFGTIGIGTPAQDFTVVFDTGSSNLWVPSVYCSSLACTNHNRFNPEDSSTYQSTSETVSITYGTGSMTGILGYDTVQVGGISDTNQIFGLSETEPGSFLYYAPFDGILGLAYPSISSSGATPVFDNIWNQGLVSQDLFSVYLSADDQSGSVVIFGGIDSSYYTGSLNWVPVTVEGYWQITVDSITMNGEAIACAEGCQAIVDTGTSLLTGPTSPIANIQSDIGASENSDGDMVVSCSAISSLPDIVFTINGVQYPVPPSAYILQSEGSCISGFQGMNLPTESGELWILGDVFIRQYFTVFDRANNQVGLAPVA

calpain II = calpain II (Homo sapiens, UniProt P17655); details: E-64; cited from earlier work
calpain II, sequence (P17655 whole entry): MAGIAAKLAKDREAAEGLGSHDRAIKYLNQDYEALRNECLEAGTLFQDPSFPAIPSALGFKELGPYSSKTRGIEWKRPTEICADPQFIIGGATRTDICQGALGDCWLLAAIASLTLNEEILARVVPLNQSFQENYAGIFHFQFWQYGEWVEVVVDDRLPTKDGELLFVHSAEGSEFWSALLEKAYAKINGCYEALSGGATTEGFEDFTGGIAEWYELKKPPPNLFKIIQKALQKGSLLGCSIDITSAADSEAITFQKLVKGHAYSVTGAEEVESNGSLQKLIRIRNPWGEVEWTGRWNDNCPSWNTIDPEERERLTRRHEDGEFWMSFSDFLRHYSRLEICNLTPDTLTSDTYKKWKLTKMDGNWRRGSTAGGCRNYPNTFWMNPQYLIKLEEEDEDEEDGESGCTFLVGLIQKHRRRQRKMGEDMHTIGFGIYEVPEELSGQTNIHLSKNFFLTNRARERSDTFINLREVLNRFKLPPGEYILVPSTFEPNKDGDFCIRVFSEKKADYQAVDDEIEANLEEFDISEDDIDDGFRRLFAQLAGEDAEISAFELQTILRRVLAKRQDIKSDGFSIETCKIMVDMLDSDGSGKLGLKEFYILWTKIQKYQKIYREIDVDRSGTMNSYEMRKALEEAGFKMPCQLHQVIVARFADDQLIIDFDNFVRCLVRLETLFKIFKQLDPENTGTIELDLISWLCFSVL
calpain II, sequence (P04632 whole entry partner): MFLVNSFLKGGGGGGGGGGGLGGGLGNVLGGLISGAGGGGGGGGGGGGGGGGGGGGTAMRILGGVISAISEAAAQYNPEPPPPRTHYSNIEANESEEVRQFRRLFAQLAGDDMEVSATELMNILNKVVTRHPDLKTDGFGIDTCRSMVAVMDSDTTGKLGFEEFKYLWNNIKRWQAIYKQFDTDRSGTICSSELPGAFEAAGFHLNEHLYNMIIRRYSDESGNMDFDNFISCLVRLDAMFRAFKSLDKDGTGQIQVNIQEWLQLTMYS

cathepsin X = cathepsin X (Homo sapiens, UniProt Q9UBR2); details: E-64; cited from earlier work
cathepsin X, sequence (Q9UBR2 62-303): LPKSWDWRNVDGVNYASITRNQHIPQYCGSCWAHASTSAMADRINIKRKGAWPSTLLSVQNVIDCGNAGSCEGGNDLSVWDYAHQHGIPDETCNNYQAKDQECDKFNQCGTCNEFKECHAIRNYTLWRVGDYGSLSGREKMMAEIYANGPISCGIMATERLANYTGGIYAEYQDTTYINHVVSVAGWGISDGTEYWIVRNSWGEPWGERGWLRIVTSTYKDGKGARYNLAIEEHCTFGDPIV

cathepsin O = details: E-64; cited from earlier work
ficin = details: E-64; cited from earlier work
mold acid protease = details: E-64; cited from earlier work
thermolysin = thermolysin (Bacillus thermoproteolyticus, UniProt P00800); details: E-64; cited from earlier work
fruit bromelain = fruit bromelain (Ananas comosus, UniProt O23791); details: E-64; cited from earlier work
fruit bromelain, sequence (O23791 122-351): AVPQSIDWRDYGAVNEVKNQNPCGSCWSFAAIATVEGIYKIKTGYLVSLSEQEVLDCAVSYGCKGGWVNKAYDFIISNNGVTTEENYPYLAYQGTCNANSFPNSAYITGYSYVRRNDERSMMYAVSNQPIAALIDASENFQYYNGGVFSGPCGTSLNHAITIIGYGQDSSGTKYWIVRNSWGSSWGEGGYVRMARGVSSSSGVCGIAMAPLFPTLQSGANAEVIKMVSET

cathepsin K = cathepsin K (Homo sapiens, UniProt P43235); details: E-64; cited from earlier work

**Q.** Which results are given for `CC(C)C[C@H](NC(=O)[C@H]1O[C@@H]1C(=O)O)C(=O)NCCCCNC(=N)N` [E-64, N-(N-(L-3-trans-carboxyoxiran-2-carbonyl)-L-leucyl)agmatine]?
**A.** enzymes not inactivated: α-chymotrypsin (α-chymotrypsin): α-chymotrypsin; enzymes not inactivated: trypsin (trypsin): trypsin; rate, cruzain (cruzain): 70,600 M^−1 s^−1; rate, papaya proteinase IV (papaya proteinase IV): 58,000 M^−1 s^−1; rate, streptococcal proteinase (streptococcal proteinase): 624 M⁻¹ s⁻¹; enzymes not inactivated: legumain (legumain): legumain; enzymes not inactivated: caspase 1 (ICE) (caspase 1 (ICE)): caspase 1 (ICE); rate, cathepsin S (cathepsin S): 99,000 M^−1 s^−1; IC50 (bleomycin hydrolase): > 160 µM; rate, vignain (vignain): 32,500 M^−1 s^−1; rate, cathepsin L (cathepsin L): 96,250 M^−1 s^−1; rate, cathepsin H (cathepsin H): 4,000 M^−1 s^−1; enzymes not inactivated: elastase (elastase): elastase; rate, cathepsin B (cathepsin B): 89,400 M^−1 s^−1; enzymes not inactivated: plasmin (plasmin): plasmin; ID50, papain (papain): 0.104 (ID50); enzymes not inactivated: collagenase (collagenase): collagenase; enzymes not inactivated: kallikrein (kallikrein): kallikrein; enzymes not inactivated: clostripain (clostripain): clostripain; IC50 (cathepsin V): > 100 nM; enzymes inactivated: cathepsin F (cathepsin F): cathepsin F; enzymes not inactivated: LDH (LDH): LDH; enzymes inactivated: cathepsin J (cathepsin J): cathepsin J; rate, DPPI (DPPI): 100 M⁻¹ s⁻¹; ID50, stem bromelain (stem bromelain): 0.025 (ID50); enzymes not inactivated: pepsin (pepsin): pepsin; rate, calpain II (calpain II): 7,500 M^−1 s^−1; rate, cathepsin X (cathepsin X): 775 M⁻¹ s⁻¹; IC50 (cathepsin O): > 100 µM; ID50, ficin (ficin): 0.084 (ID50); enzymes not inactivated: mold acid protease (mold acid protease): mold acid protease; enzymes not inactivated: thermolysin (thermolysin): thermolysin; ID50, fruit bromelain (fruit bromelain): 0.110 (ID50); Ki (cathepsin K): 1.8 nM
